The values that follow are results of earlier work, collected in patent US20200038341A1, “METHODS AND COMPOSITIONS FOR TREATING JOINT DISEASE” (Script Essentials, LLC, priority 2015, published 2020).

The conditions of the data set: male and female participants over 50 years old, before and after the intervention.

In the case of `CS(C)(=O)=O` [MSM, Methylsulfonylmethane], the “joint function, symptoms of joint degeneration and activities of daily living” value is “improve joint function, relieve symptoms of joint degeneration and improve activities of daily living”.
